Results published in paper PMC6979384, “Characterization of the plant homeodomain (PHD) reader family for their histone tail interactions” (Epigenetics & Chromatin, 2020).

Key:
Assay in all cases: Histone peptide microarray
Type in all cases: binding, human
Conditions in all cases: total n = 4
[1] = test system: ING2
How it was run: (§1)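 Each reader, produced as a GST fusion and purified, was tested at 0.5 μM on synthetic histone peptides (293 in total) carrying single or combinatorial marks. Intensities averaged over four replicates.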

[2] = test system: TAF3
How it was run: as §1

[3] = test system: KDM5A (3)
How it was run: as §1

[4] = test system: CHD5 (PCC)
How it was run: as §1

[5] = test system: BAZ2B
How it was run: as §1

[6] = test system: KDM5B (3)
How it was run: as §1

[7] = test system: ING1
How it was run: as §1

[8] = test system: PHF21A
How it was run: as §1

[9] = test system: KDM4C (TTP)
How it was run: as §1

[10] = test system: PHF2
How it was run: as §1

[11] = test system: BPTF (PB)
How it was run: as §1

[12] = test system: KDM5B (1)
How it was run: as §1

[13] = test system: PHF23
How it was run: as §1

[14] = test system: CHD5 (PPCC)
How it was run: as §1

[15] = test system: PHF13
How it was run: as §1

[16] = test system: PHF8
How it was run: as §1

[17] = test system: DPF2 (PPC2W2)
How it was run: as §1

[18] = test system: PHRF1 (RP)
How it was run: as §1

[19] = test system: MLL5
How it was run: as §1

[20] = test system: TRIM66 (PB)
How it was run: as §1

[21] = test system: MORC3 (CW)
How it was run: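 A peptide microarray holding 293 synthetic histone peptides with individual or combinatorial modifications was probed with each GST-PHD protein at 0.5 μM. Values represent mean intensity (±SD) from four replicates.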

[22] = test system: ING5
How it was run: as §1

[23] = test system: KDM5A (1)
How it was run: as §1

[24] = test system: SP140L
How it was run: as §1

[25] = test system: ING3
How it was run: as §1

[26] = test system: ING4
How it was run: as §1

[27] = test system: CHD4 (PPCC)
How it was run: as §1

[28] = test system: RAG2
How it was run: as §1

[29] = test system: AIRE (PP)
How it was run: as §1

[30] = test system: KDM7A
How it was run: as §1

[31] = test system: DIDO1
How it was run: as §1

[32] = sheet "Array Heatmap", GST-tagged reader, histone peptide array

H3K4ac + K14ac: H3 1-20
Array Heatmap signal (histone peptide microarray) ([1]; GST-tagged ING2, sheet Array Heatmap, each array performed twice): 0.6101
Array Heatmap signal (histone peptide microarray) ([2]; GST-tagged TAF3, sheet Array Heatmap, each array performed twice): 0.2918
Array Heatmap signal (histone peptide microarray) ([3]; GST-tagged KDM5A (3), sheet Array Heatmap, each array performed twice): 0.4971
Array Heatmap signal (histone peptide microarray) ([4]; GST-tagged CHD5 (PCC = PHD + Dual Chromodomain), sheet Array Heatmap, each array performed twice): 0.8648
Array Heatmap signal (histone peptide microarray) ([5]; GST-tagged BAZ2B, sheet Array Heatmap, each array performed twice): 0.8376
Array Heatmap signal (histone peptide microarray) ([6]; GST-tagged KDM5B (3), sheet Array Heatmap, each array performed twice): 0.5625
Array Heatmap signal (histone peptide microarray) ([7]; GST-tagged ING1, sheet Array Heatmap, each array performed twice): 0.5034
Array Heatmap signal (histone peptide microarray) ([8]; GST-tagged PHF21A, sheet Array Heatmap, each array performed twice): 0.4619
Array Heatmap signal (histone peptide microarray) ([9]; GST-tagged KDM4C (TTP = Tandem Tudor domain + PHD), sheet Array Heatmap, each array performed twice): 0.505
Array Heatmap signal (histone peptide microarray) ([10]; GST-tagged PHF2, sheet Array Heatmap, each array performed twice): 0.5218
Array Heatmap signal (histone peptide microarray) ([11]; GST-tagged BPTF (PB = PHD + Bromodomain), sheet Array Heatmap, each array performed twice): 0.4507
Array Heatmap signal (histone peptide microarray) ([12]; GST-tagged KDM5B (1), sheet Array Heatmap, each array performed twice): 0.6896
Array Heatmap signal (histone peptide microarray) ([13]; GST-tagged PHF23, sheet Array Heatmap, each array performed twice): 0.5688
Array Heatmap signal (histone peptide microarray) ([14]; GST-tagged CHD5 (PPCC = Dual PHD + Dual Chromodomain), sheet Array Heatmap, each array performed twice): 0.5648
Array Heatmap signal (histone peptide microarray) ([15]; GST-tagged PHF13, sheet Array Heatmap, each array performed twice): 0.6284
Array Heatmap signal (histone peptide microarray) ([16]; GST-tagged PHF8, sheet Array Heatmap, each array performed twice): 0.3555
Array Heatmap signal (histone peptide microarray) ([17]; GST-tagged DPF2 (PPC2W2 = Dual PHD + C2W2-type Zn-finger), sheet Array Heatmap, each array performed twice): 0.6791
Array Heatmap signal (histone peptide microarray) ([18]; GST-tagged PHRF1 (RP), sheet Array Heatmap, each array performed twice): 0.5779
Array Heatmap signal (histone peptide microarray) ([19]; GST-tagged MLL5, sheet Array Heatmap, each array performed twice): 0.5464
Array Heatmap signal (histone peptide microarray) ([20]; GST-tagged TRIM66 (PB = PHD + Bromodomain), sheet Array Heatmap, each array performed twice): 0.6492
Array Heatmap signal (histone peptide microarray) ([21]; GST-tagged MORC3 (CW = CW-type Zn-finger), sheet Array Heatmap, each array performed twice): 0.433
Array Heatmap signal (histone peptide microarray) ([22]; GST-tagged ING5, sheet Array Heatmap, each array performed twice): 0.3447
Array Heatmap signal (histone peptide microarray) ([23]; GST-tagged KDM5A (1), sheet Array Heatmap, each array performed twice): 0.4998
Array Heatmap signal (histone peptide microarray) ([24]; GST-tagged SP140L, sheet Array Heatmap, each array performed twice): 0.3353
Array Heatmap signal (histone peptide microarray) ([25]; GST-tagged ING3, sheet Array Heatmap, each array performed twice): 0.5142
Array Heatmap signal (histone peptide microarray) ([26]; GST-tagged ING4, sheet Array Heatmap, each array performed twice): 0.4509
Array Heatmap signal (histone peptide microarray) ([27]; GST-tagged CHD4 (PPCC = Dual PHD + Dual Chromodomain), sheet Array Heatmap, each array performed twice): 0.5746
Array Heatmap signal (histone peptide microarray) ([28]; GST-tagged RAG2, sheet Array Heatmap, each array performed twice): 0.2771
Array Heatmap signal (histone peptide microarray) ([29]; GST-tagged AIRE (PP), sheet Array Heatmap, each array performed twice): 0.4945
Array Heatmap signal (histone peptide microarray) ([30]; GST-tagged KDM7A, sheet Array Heatmap, each array performed twice): 0.4116
Array Heatmap signal (histone peptide microarray) ([31]; GST-tagged DIDO1, sheet Array Heatmap, each array performed twice): 0.6468

H4K20me3 (1-23): H4 1-23
Array Heatmap value (peptide array signal) ([1]; ING2, sheet "Array Heatmap", each array performed twice): 0.5794
Array Heatmap value (peptide array signal) ([2]; TAF3, sheet "Array Heatmap", each array performed twice): 0.2546
Array Heatmap value (peptide array signal) ([3]; KDM5A (3), sheet "Array Heatmap", each array performed twice): 0.4449
Array Heatmap value (peptide array signal) ([4]; CHD5 (PCC), sheet "Array Heatmap", each array performed twice): 0.7553
Array Heatmap value (peptide array signal) ([5]; BAZ2B, sheet "Array Heatmap", each array performed twice): 0.4188
Array Heatmap value (peptide array signal) ([6]; KDM5B (3), sheet "Array Heatmap", each array performed twice): 0.4599
Array Heatmap value (peptide array signal) ([7]; ING1, sheet "Array Heatmap", each array performed twice): 0.5131
Array Heatmap value (peptide array signal) ([8]; PHF21A, sheet "Array Heatmap", each array performed twice): 0.4514
Array Heatmap value (peptide array signal) ([9]; KDM4C (TTP), sheet "Array Heatmap", each array performed twice): 0.4703
Array Heatmap value (peptide array signal) ([10]; PHF2, sheet "Array Heatmap", each array performed twice): 0.4783
Array Heatmap value (peptide array signal) ([11]; BPTF (PB), sheet "Array Heatmap", each array performed twice): 0.3468
Array Heatmap value (peptide array signal) ([12]; KDM5B (1), sheet "Array Heatmap", each array performed twice): 0.6332
Array Heatmap value (peptide array signal) ([13]; PHF23, sheet "Array Heatmap", each array performed twice): 0.5181
Array Heatmap value (peptide array signal) ([14]; CHD5 (PPCC), sheet "Array Heatmap", each array performed twice): 0.5147
Array Heatmap value (peptide array signal) ([15]; PHF13, sheet "Array Heatmap", each array performed twice): 0.5943
Array Heatmap value (peptide array signal) ([16]; PHF8, sheet "Array Heatmap", each array performed twice): 0.3429
Array Heatmap value (peptide array signal) ([17]; DPF2 (PPC2W2), sheet "Array Heatmap", each array performed twice): 0.6148
Array Heatmap value (peptide array signal) ([18]; PHRF1 (RP), sheet "Array Heatmap", each array performed twice): 0.4228
Array Heatmap value (peptide array signal) ([19]; MLL5, sheet "Array Heatmap", each array performed twice): 0.5073
Array Heatmap value (peptide array signal) ([20]; TRIM66 (PB), sheet "Array Heatmap", each array performed twice): 0.5898
Array Heatmap value (peptide array signal) ([21]; MORC3 (CW), sheet "Array Heatmap", each array performed twice): 0.3692
Array Heatmap value (peptide array signal) ([22]; ING5, sheet "Array Heatmap", each array performed twice): 0.3228
Array Heatmap value (peptide array signal) ([23]; KDM5A (1), sheet "Array Heatmap", each array performed twice): 0.4224
Array Heatmap value (peptide array signal) ([24]; SP140L, sheet "Array Heatmap", each array performed twice): 0.3602
Array Heatmap value (peptide array signal) ([25]; ING3, sheet "Array Heatmap", each array performed twice): 0.465
Array Heatmap value (peptide array signal) ([26]; ING4, sheet "Array Heatmap", each array performed twice): 0.4304
Array Heatmap value (peptide array signal) ([27]; CHD4 (PPCC), sheet "Array Heatmap", each array performed twice): 0.5546
Array Heatmap value (peptide array signal) ([28]; RAG2, sheet "Array Heatmap", each array performed twice): 0.2424
Array Heatmap value (peptide array signal) ([29]; AIRE (PP), sheet "Array Heatmap", each array performed twice): 0.4048
Array Heatmap value (peptide array signal) ([30]; KDM7A, sheet "Array Heatmap", each array performed twice): 0.329
Array Heatmap value (peptide array signal) ([31]; DIDO1, sheet "Array Heatmap", each array performed twice): 0.6567

H3K9me1: H3 1-20 [Peptide H3K9me1]
Array Heatmap signal, ING2 [1, 32]: 0.5783
Array Heatmap signal, TAF3 [2, 32]: 0.2561
Array Heatmap signal, KDM5A (3) [3, 32]: 0.4739
Array Heatmap signal, CHD5 (PCC) [4, 32]: 0.8558
Array Heatmap signal, BAZ2B [5, 32]: 0.4746
Array Heatmap signal, KDM5B (3) [6, 32]: 0.4949
Array Heatmap signal, ING1 [7, 32]: 0.4934
Array Heatmap signal, PHF21A [8, 32]: 0.4979
Array Heatmap signal, KDM4C (TTP) [9, 32]: 0.5061
Array Heatmap signal, PHF2 [10, 32]: 0.4569
Array Heatmap signal, BPTF (PB) [11, 32]: 0.3459
Array Heatmap signal, KDM5B (1) [12, 32]: 0.68
Array Heatmap signal, PHF23 [13, 32]: 0.5057
Array Heatmap signal, CHD5 (PPCC) [14, 32]: 0.5585
Array Heatmap signal, PHF13 [15, 32]: 0.594
Array Heatmap signal, PHF8 [16, 32]: 0.3494
Array Heatmap signal, DPF2 (PPC2W2) [17, 32]: 0.6871
Array Heatmap signal, PHRF1 (RP) [18, 32]: 0.6479
Array Heatmap signal, MLL5 [19, 32]: 0.5407
Array Heatmap signal, TRIM66 (PB) [20, 32]: 0.6422
Array Heatmap signal, MORC3 (CW) [21, 32]: 0.4491
Array Heatmap signal, ING5 [22, 32]: 0.3437
Array Heatmap signal, KDM5A (1) [23, 32]: 0.4835
Array Heatmap signal, SP140L [24, 32]: 0.3427
Array Heatmap signal, ING3 [25, 32]: 0.4876
Array Heatmap signal, ING4 [26, 32]: 0.4656
Array Heatmap signal, CHD4 (PPCC) [27, 32]: 0.6171
Array Heatmap signal, RAG2 [28, 32]: 0.2526
Array Heatmap signal, AIRE (PP) [29, 32]: 0.5694
Array Heatmap signal, KDM7A [30, 32]: 0.3983
Array Heatmap signal, DIDO1 [31, 32]: 0.6415
